In patent US20230021483A1, “[…] […] METHOD AND CLASSIFICATION OF PHARMACEUTICAL COMPONENTS BY USING TRANSCRIPTOMES” (National Institutes of Biomedical Innovation, Health and …, priority 2016, published 2023):
Values joined by “and” are separate entries in the source; they are usually repeats but may differ in a detail not shown here. Identical values can stand only once.

Legend:
LV, SP and LNs = experiment: Whole organ transcriptome across organs (adjuvant gene space): gene responses and adjuvant grouping; format: in vivo, C57BL/6 mice
spleen (SP) = experiment: Whole organ transcriptome (GeneChip microarray) of spleen 6 h after adjuvant administration: sDEGs, hierarchical clustering; format: in vivo, C57BL/6 mice; on adjuvant group (cluster) in SP: key: G1 (interferon signaling); G2 (metabolism of lipids and lipoproteins); G3 (response to stress); G4 (response to wounding); G5 (phosphate-containing compound metabolic process); G6 (phagosome)
[1] = tested on: preferentially upregulated genes in LV, SP, LN; experiment: Z-score-based differential gene expression analysis (adjuvant group- or adjuvant-associated genes, 40 module mapping, TargetMine annotation); format: in vivo, C57BL/6 mice; conditions: liver (LV); gene group G1, module 20; individual mice x1-x3; route ID/IP/IN
In short: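 Gene groups for each organ were built from combined z-score cutoffs across adjuvants, ranging from z>1 to z>3. Scores came from fold changes standardized per gene over the whole organ data set, with the three replicate z-scores added per adjuvant; sums above 3 marked preferential expression.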

liver = conditions: mouse, in vivo, ip
Protocol: After 3 hours/6 hours, blood and liver were collected on day 1, day 2, day 3, and day 5. Hematoxylin and eosin staining was applied to the collected liver and histologically analyzed (FIG. 20).

[2] = tested on: inguinal lymph nodes (LN); experiment: Whole organ transcriptome (GeneChip microarray) of draining inguinal lymph nodes 6 h after adjuvant administration: sDEGs, gene modules, hierarchical clustering; format: in vivo, C57BL/6 mice; conditions: lymph node; on adjuvant group (cluster) in LN: key: G1 (interferon signaling); G2 (metabolism of lipids and lipoproteins); G3 (response to stress); G4 (response to wounding); G5 (phosphate-containing compound metabolic process); G6 (phagosome)
[3] = i.d. administration, fold change <0.667, p<0.01, customized PA call=1, 6 h after adjuvant
[4] = i.d. administration, fold change >1.5, p<0.01, customized PA call=1, 6 h after adjuvant

heptanoyl-γ-D-glutamyl-(L)-meso-diaminopimelyl-(D)-alanine [FK565]
distribution/strength of gene responses between local LNs and systemic organs (LV, SP) (LV, SP and LNs; 6 h after i.d. (local) administration): greater responses in LV and SP than in LNs | adjuvant group (cluster) within the adjuvant gene space (LV, SP and LNs; hierarchical clustering, LV, SP and/or LNs): G3 | adjuvant group (cluster) in SP (spleen (SP); hierarchical clustering): G3 | Number of gene probes with statistically significant changes (sDEGs), SP, Down (spleen (SP); [3]): 624 | Number of gene probes with statistically significant changes (sDEGs), SP, Up (spleen (SP); [4]): 1672 | Z score of gene expression, Adar (probe 1425405_a_at) [1]: −0.4 (2×) and −0.5 | Z score of gene expression, Adar (probe 1434268_at) [1]: −0.1 | Z score of gene expression, Ddx58 (probe 1436562_at) [1]: −0.2 (2×) and −0.3 | Z score of gene expression, Ddx58 (probe 1456890_at) [1]: −0.5 (2×) and −0.1 | Z score of gene expression, Eif2ak2 (probe 1422005_at) [1]: 0.05 and 0.09 and −0.1 | Z score of gene expression, G3bp2 (probe 1421323_a_at) [1]: −0.3 (2×) and −0.2 | Z score of gene expression, Gm9706///Isg15 (probe 1431591_s_at) [1]: −0.1 (2×) and −0.2 | Z score of gene expression, H2-T10///H2-T22///H2-T9 (probe 1449875_s_at) [1]: 0.21 and 0.04 and 0.29 | Z score of gene expression, Ifih1 (probe 1426276_at) [1]: −0.3 | Z score of gene expression, Ifit1 (probe 1449025_at) [1]: −0.4 | Z score of gene expression, Ifit1 (probe 1450783_at) [1]: −0.4 | Z score of gene expression, Irf7 (probe 1417244_a_at) [1]: −0.3 (2×) and −0.4 | Z score of gene expression, Irgm1 (probe 1418825_at) [1]: 0.07 and 0.13 and 0.08 | Z score of gene expression, Mndal (probe 1426906_at) [1]: −0.4 and −0.5 (2×) | Z score of gene expression, Pml (probe 1448757_at) [1]: −0.5 and −0.6 and −0.8 | Z score of gene expression, Pml (probe 1456103_at) [1]: −0.5 | Z score of gene expression, Rnf213 (probe 1455500_at) [1]: 0.02 and 0.06 and 0.03 | Z score of gene expression, Rsad2 (probe 1436058_at) [1]: −0.4 | Z score of gene expression, Shisa5 (probe 1423986_a_at) [1]: −0.1 and 0.01 and 0.18 | Z score of gene expression, Shisa5 (probe 1437503_a_at) [1]: −0.2 and −0.3 and −0.1 | Z score of gene expression, Stat1 (probe 1450033_a_at) [1]: −0.1 and −0 and 0 | Z score of gene expression, Stat1 (probe 1450034_at) [1]: −0.1 (2×) and −0 | Z score of gene expression, Tdrd7 (probe 1426716_at) [1]: −0.5 (2×) and −0.4 | Z score of gene expression, Tor1aip2 (probe 1418115_s_at) [1]: −0.6 and −0.5 (2×) | Z score of gene expression, Tor1aip2 (probe 1418116_at) [1]: −0.7 (2×) and −0.9 | Z score of gene expression, Tor1aip2 (probe 1435526_at) [1]: −0.8 and −0.9 (2×) | Z score of gene expression, Trim12a (probe 1437432_a_at) [1]: 0.1 and −0.1 and −0.2 | Z score of gene expression, Uba7 (probe 1426970_a_at) [1]: −0.4 and −0.5 and −0.3 | histological finding in liver (hematoxylin and eosin) (liver): liver damage | adjuvant group (cluster) in LN ([2]; hierarchical clustering): G3 | Number of gene probes with statistically significant changes (sDEGs), LN, Down [2, 3]: 306 | Number of gene probes with statistically significant changes (sDEGs), LN, Up [2, 4]: 526
